Experimental data published in patent US6599940B2, “Synthesis of 2-hydroxymethylglutamic acid and congeners thereof” (Georgetown University, priority 2000, dated 2003).

Columns and labels:
Conditions in all cases: result in words, no method or number given
[1] = system: Group 3 mGluRs; assay: Effect on Group 3 mGluRs
[2] = biological target: mGluR2 (Homo sapiens, UniProt Q14416); assay: Antagonist activity at mGluR2
[3] = system: Group 1 mGluRs; assay: Effect on Group 1 mGluRs
[4] = biological target: mGluR3 (Homo sapiens, UniProt Q14832); assay: Agonist activity at the Group 2 receptor mGluR3
Sequence of mGluR3 (Q14832 23-879): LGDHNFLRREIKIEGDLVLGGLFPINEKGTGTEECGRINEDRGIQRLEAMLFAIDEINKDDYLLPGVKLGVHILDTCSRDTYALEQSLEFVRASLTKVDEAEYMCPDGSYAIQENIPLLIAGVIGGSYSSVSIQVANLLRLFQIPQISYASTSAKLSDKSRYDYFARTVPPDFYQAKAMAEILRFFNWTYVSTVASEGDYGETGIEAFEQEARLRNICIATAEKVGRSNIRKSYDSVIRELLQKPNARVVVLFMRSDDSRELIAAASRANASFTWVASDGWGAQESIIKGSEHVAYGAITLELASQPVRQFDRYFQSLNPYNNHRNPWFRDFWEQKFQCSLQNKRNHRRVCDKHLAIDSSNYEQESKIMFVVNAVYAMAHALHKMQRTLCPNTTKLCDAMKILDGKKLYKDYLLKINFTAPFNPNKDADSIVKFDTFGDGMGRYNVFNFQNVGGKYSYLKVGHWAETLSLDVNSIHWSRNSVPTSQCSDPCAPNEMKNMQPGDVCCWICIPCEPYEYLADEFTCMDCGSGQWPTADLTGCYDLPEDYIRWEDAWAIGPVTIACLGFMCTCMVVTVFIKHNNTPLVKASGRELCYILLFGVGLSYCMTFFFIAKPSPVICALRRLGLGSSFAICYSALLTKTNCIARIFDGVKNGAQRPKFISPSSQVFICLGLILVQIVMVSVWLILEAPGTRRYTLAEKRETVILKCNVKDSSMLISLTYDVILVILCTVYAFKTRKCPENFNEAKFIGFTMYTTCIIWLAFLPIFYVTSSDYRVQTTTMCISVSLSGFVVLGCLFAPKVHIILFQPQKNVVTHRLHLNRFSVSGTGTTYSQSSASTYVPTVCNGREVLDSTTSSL

Sequence of mGluR2 (Q14416 19-872): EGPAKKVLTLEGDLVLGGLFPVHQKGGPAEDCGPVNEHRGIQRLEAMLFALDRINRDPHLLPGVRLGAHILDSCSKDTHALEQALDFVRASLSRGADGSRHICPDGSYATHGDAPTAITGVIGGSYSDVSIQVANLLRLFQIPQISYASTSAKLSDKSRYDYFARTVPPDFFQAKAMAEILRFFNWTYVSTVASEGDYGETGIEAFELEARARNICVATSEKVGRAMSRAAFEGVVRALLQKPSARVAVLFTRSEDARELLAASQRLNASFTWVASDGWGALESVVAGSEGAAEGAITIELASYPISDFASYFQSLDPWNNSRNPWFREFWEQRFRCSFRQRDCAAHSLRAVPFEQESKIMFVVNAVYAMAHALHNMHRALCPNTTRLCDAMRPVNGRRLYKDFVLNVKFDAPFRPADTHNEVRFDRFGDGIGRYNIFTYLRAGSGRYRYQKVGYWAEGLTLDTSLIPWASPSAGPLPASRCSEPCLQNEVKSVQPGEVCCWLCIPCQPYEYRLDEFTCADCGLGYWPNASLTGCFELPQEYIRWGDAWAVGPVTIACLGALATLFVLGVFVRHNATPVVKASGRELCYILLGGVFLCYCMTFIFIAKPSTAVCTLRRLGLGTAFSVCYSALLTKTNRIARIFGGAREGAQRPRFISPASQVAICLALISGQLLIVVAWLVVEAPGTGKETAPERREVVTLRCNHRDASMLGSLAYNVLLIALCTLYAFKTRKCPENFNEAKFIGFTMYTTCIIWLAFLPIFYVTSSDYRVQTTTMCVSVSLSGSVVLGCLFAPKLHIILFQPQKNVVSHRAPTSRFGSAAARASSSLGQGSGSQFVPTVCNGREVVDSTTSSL

- activity at mGluR2 [2]: weak antagonist
- activity at the Group 2 receptor mGluR3 [4]: relatively potent agonist
Structure (SMILES): N[C@@](CO)(CCC(=O)O)C(=O)O [Compound 1, (R)-2(Hydroxymethyl)glutamic acid]
- effect on the Group 3 mGluRs [1]: little or no effect
- effect on the Group 1 mGluRs [3]: little or no effect
